Test results from patent EP2891500B1, “Contrast agent for determination of aldehyde dehydrogenase (ALDH) activity” (Cambridge Enterprise Limited, priority 2014, dated 2015).
Several values for one entry are separate records, joined by “and”; a condition that tells them apart may be missing. Identical values can stand only once.

Tests used:
[1] = 13C T1 measurements in vitro (inversion recovery, 11 T); assay type: physicochemical; settings: PBS buffer, pH 7.5, containing 4% BSA, n=2
Procedure: ^13C T1 measurements in vitro: Measurements were made at 11 T (Bruker Avance II^+ 500 MHz spectrometer) using an inversion recovery sequence in samples containing approximately 10 mM [1-^13C] ethanol or 1 M ethanol, 10% D2O and 4% BSA (Sigma Aldrich), buffered with PBS to pH 7.5. A TR of 300 seconds and 16 delays between 1 and 200 seconds were used for measurements with [1-^13C, U-^2H5] ethanol and a TR of 50 seconds and 16 delays between 0.5 and 50 seconds were used for measurements of the natural abundance ^13C signal from 1M ethanol.

[2] = Hyperpolarisation by dynamic nuclear polarization and liquid state polarization measurement; assay type: physicochemical
Procedure: A 2:3 glycerol: [1-^13C] ethanol mixture, containing 15 mM trityl radical (OX063: tris (8-carboxy-2,2,6,6-tetra-(hydroxyethyl)-benzo-[1,2-4,50]-bis-(1,3)-dithiole-4-yl)-methyl, sodium salt; GE Healthcare, Little Chalfont, UK) and 1.5 mM gadoteric acid (DOTAREM; Guebert, Roissy, France), was polarized for approximately 120 minutes in a 3.35 T Hypersense polarizer (Oxford Instruments, Abingdon, Oxfordshire, UK) using irradiation at 94.124 GHz. The dissolution buffer (PBS, pH 7.5, 100 mg/L EDTA) was heated to 180°C and pressurized to 10 bar before dissolving the frozen polarized samples. The dissolved sample contained 110 mM [1-^13C] ethanol. For measurements of the liquid state polarization a sample of [1-^13C] ethanol was polarized and dissolved as described above. Two mL of the sample, containing approximately 60 mM [1-^13C] ethanol were injected into 2 mL of PBS buffer, pH 7.4 in a 10 mm NMR tube placed inside a vertical bore 9.4 T NMR spectrometer with a broadband probe tuned to ^13C (Varian NMR Instruments, Palo Alto, CA, U.S.). Immediately following injection and approximately 9 seconds after dissolution, 180 single transient spectra, with a nominal pulse flip angle of 6° and 8 kHz spectral width, were acquired with a TR of 1 second. Three 90° pulses were then applied to eliminate the remaining hyperpolarisation. A ^13C spectrum (the sum of 128 transients) was then acquired using a 6° pulse, a spectral width of 8 kHz, and a TR of 300 seconds. The temperature of the sample was kept at 37°C. The liquid state polarization was calculated from the ratio of the maximal integrated intensity of the hyperpolarised [1-^13C] ethanol signal to the integrated intensity of the thermal equilibrium signal corrected for the number of transients.

[3] = Measurement of blood ethanol level (13C MRS on plasma samples); assay type: in vivo, mice; settings: for ethanol concentration in plasma: plasma withdrawn 75 seconds after start of i.v. injection of 10 µl per g body weight of 110 mM ethanol
Procedure: Measurement of blood ethanol level: An appropriate volume of [2-^13C] ethanol, polarized and dissolved to the same concentration as [1-^13C] ethanol, was injected into the tail vein of animals that had been anesthetized for 30-45 minutes. Blood was withdrawn by cardiac puncture, which began 75 seconds after the start of ethanol injection and was completed within 30 seconds. Individual blood samples were transferred into separate BD Microtainer FE micro-collection tubes (BD, Franklin Lakes, NJ, US), centrifuged at 800 g and the plasma removed and frozen in liquid nitrogen. For NMR spectroscopy, plasma samples were thawed and diluted in 200 mM PBS in D2O, pH 7.5. The buffer contained 100 mM TMSP (2,2,3,3-D4 sodium-3-trimethylsilylpropionate) as an intensity and chemical shift standard (Cambridge Isotope Laboratories, Inc. Andover MA, US). ^13C spectra (the sum of 1024 transients) were acquired under fully relaxed conditions at 125 MHz (Bruker Avance II^+ 500 MHz spectrometer) into 25,294 data points using a 90° pulse, a sweep width of 5 kHz, and a TR of 35 seconds. Integrated intensities of the 2-^13C ethanol and 2-^13C acetate resonances were normalized to that of TMSP and multiplied by the methyl ^13C concentration in 100 mM TMSP (3.33 mM) in order to convert to acetate or ethanol concentrations.

ALDH2 [4] = target: T1, ALDH2 (Mus musculus, UniProt P47738); assay: In vivo 13C MRS of acetate production from hyperpolarised [1-13C, U-2H5]ethanol in liver after disulfiram treatment; design: species or system mice; settings: approximately 24 hours before MRS
T1 construct: animals were killed and their livers rapidly excised, freeze-clamped and stored at - 80°C before homogenization and enzyme assay; from tissue; host or cells: Triton X-100 extract of freeze-clamped mouse liver
T1 sequence (P47738 20-519): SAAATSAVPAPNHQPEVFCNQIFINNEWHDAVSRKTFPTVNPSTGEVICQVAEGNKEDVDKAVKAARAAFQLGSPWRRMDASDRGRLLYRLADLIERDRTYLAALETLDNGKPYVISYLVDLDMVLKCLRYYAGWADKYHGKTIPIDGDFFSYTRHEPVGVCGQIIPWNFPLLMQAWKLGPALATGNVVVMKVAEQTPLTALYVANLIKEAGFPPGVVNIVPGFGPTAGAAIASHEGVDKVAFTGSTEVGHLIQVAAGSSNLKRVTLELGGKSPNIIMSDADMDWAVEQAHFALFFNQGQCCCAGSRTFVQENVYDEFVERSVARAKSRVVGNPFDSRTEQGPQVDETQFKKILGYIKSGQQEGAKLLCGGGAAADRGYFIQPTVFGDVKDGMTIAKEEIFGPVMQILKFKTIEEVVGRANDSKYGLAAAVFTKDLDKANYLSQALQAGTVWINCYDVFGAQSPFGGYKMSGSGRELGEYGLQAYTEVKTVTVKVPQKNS
From the text: All animal experiments were approved by local ethical review committees and performed in accordance with the Animals (Scientific Procedures) Act of 1986. Female CD1 mice (6-8 weeks old) were used in all experiments. Animals were anaesthetized using 3 % isoflurane vapor (Isoflo, Abbotts Laboratories Ltd, Maidenhead, UK) in an oxygen/air mixture. Anesthesia was maintained during the MR experiments with 1-2 % isoflurane vapor in an oxygen/air mixture delivered via a face mask.
In vivo NMR spectroscopy: A catheter was inserted in a tail vein and the mouse placed in a heated cradle. Throughout the experiment animal breathing rate and core body temperature were monitored using a Biotrig physiological monitor (Small Animal Instruments, Stony Brook, NY), which were within the range of 60-100 bpm and 36-37°C, respectively. A 20 mm diameter surface coil (Rapid Biomedical GmbH, Rimpar, Germany) was placed over the liver and the entire assembly placed in a ^13C/^1H volume coil (Rapid Biomedicals, Germany), in a 7T horizontal bore magnet (Varian, Palo Alto, CA). Livers were localized in transverse ^1H images, acquired using a spin-echo pulse sequence (TR, 1.5 s; echo time (TE), 10 ms; field of view, 40 mm x 40 mm; data matrix, 128 x 128; slice thickness, 2 mm; 15 slices). […] All data were phase and baseline corrected and the signal integrals for ethanol and acetate measured. […]

ALDH2 [5] = target: T1, ALDH2; assay: ALDH2 activity assay in liver extracts of treated animals; assay type: biochemical, mice; settings: 24 hours after 600 mg/kg body weight disulfiram, versus control animals
Procedure: Animals were given 100 mg/kg or 600 mg/kg body weight of disulfiram as a suspension in 5% w/v of gum arabicum, by oral gavage (Spielman, D.M., Mayer, D., Yen, Y.F., Tropp, J., Hurd, R.E., Pfefferbaum, A., "In vivo measurement of ethanol metabolism in the rat liver using magnetic resonance spectroscopy of hyperpolarised [1-13C]pyruvate.", Magn.Reson.Med. 2009; 62: 307-313). ^13C MRS experiments were performed approximately 24 hours after drug administration. In some experiments, shortly after completion of MRS measurements, animals were killed and their livers rapidly excised, freeze-clamped and stored at - 80°C before homogenization and enzyme assay.
Liver Tissue Extraction: Freeze-clamped livers were homogenized using a manual Potter S homogenizer (Sartorius, Epsom, UK) in 7 volumes (mL per gram wet weight of liver) of ice-cold extraction buffer (50 mM Tris-HCl, pH 7.4 containing 0.25 M sucrose, 0.1 % v/v 2-mercaptoethanol, 1 mM EDTA and protease inhibitor cocktail (Roche)). Ten strokes of 5 seconds (each followed by a 5 second pause) at 1000 r.p.m. were used. […]
ALDH2 activity assay: The assay mixture containing 0.5 mM NAD^+, 0.1 % v/v of 2-mercaptoethanol, 200 mM KCl in 100 mM sodium pyrophosphate buffer, pH 9.0. […] The formation of NADH was measured for 5 minutes after substrate addition as an increase in absorbance at 340 nm using a Tecan Sunrise 96 well plate reader. […]

For `[2H]C([2H])([2H])[13C]([2H])([2H])O` [[1-^13C, U-^2H5]ethanol], the “^13C T1” value [1] was 56 s, the “polarization buildup time constant of dynamic nuclear polarization” value ([2]; 3.35 T Hypersense polarizer, n=3) was 41.2 ± 5.5 min and the “T1 calculated from the decay of the polarization” value ([2]; hyperpolarised sample in PBS, 9.4 T, 37°C, SD, n=3) was 53.7 ± 3.2 s. For the same compound, the liquid state polarization ([2]; measured approximately 9 seconds after dissolution) was 14.1 ± 3.3%.
In the case of `[13CH3]CO` [[2-^13C] ethanol], the “[1-^13C] acetate concentration in plasma” value ([3]; plasma withdrawn 75 seconds after start of ethanol injection, SD, n=3) is reported as 0.93 ± 0.29 mM and the “ethanol concentration in plasma” value ([3]; SD, n=3) is reported as 1.73 ± 0.48 mM.
For `CCN(CC)C(=S)SSC(=S)N(CC)CC` [disulfiram], the “decrease of the maximum acetate signal (normalized to the maximum ethanol signal)” value (ALDH2 [4]; disulfiram 100 mg/kg by oral gavage, n=1) was “approximately 43%”, the “decrease of the maximum acetate signal (normalized to the maximum ethanol signal)” value (ALDH2 [4]; disulfiram 600 mg/kg body weight by oral gavage, SD, n=3) was 79 ± 8% and ~79% and the “decrease of ALDH2 activity in liver extracts” value (ALDH2 [5]) was 68%.
In the case of `CCO` [ethanol], the “^13C T1” value [1] is reported as 9.9 s, the “expected ethanol concentration at equilibrium” value ([3]; calculated for 10 µl per g body weight of 110 mM ethanol, assuming water is approximately 74% of body weight) is reported as “approximately 1.5 mM” and the “ethanol concentration in plasma” value ([3]; SD, n=3) is reported as 1.73 mM.
